Source: publication PMC9398717, “Comparison of Pharmacokinetic Profiles of 14 Major Bioactive Components in Normal and Arthritic Model Rats after Oral Administration of Angelicae pubescentis Radix by UPLC-MS/MS” (Evidence-based Complementary and Alternative Medicine : eCAM, 2022)

Test: Pharmacokinetic study in normal and arthritic model rats after oral administration of APR extract (UPLC-MS/MS of plasma)
Conditions: for Cmax / MRT last / half-life / Tmax: Sprague-Dawley, rat, po, 4.1 mL/kg; for Cmax: C max; for MRT last: MRT0-t; for Tmax: t max
Experimental: One hundred grams of the APR sample was extracted by reflux with 800 mL 50% ethanol/water (v/v) for 3 times (2 hours each time), then combined with the filtrate and concentrated under vacuum with heat, and the concentration of APR extract was 0.37 g/mL. All the sample solutions were stored at 4°C before analysis.
Twelve SD rats were randomly divided into two groups (n = 6) and named as the model group and the normal group, respectively. The arthritic model was established by injecting 0.1 mL of complete Freund's adjuvant in rats. As a control, 0.1 mL of saline was injected. After 7 days, the plasma levels of MDA and TNF-α in normal and model rats were measured by an enzyme-linked immunosorbent assay kit to determine whether the modeling was successful.
The ultrahigh performance liquid chromatography (Thermo Scientific™, Vanquish™, (Waltham, MA, USA)) was used for the chromatographic analysis. UPLC separation was achieved on a Thermo Hypersil GOLD C18 column (100 mm × 2.1 mm, 1.9 μm), which was maintained at 35°C.
The UPLC was interfaced to a Thermo TSQ QUANTIS triple quadrupole mass spectrometer and equipped with an electrospray ionization (ESI) probe working in positive and negative ion exchange scanning mode.
Acetonitrile was used as a precipitation solvent, and protein precipitation was used to handle with the plasma samples. […] Then, the supernatant was dried in a nitrogen environment at 45°C, and the remaining residue was recombined with 100 μL 50% methanol aqueous and vortex for 1 min. Finally, 2 μL supernatant was injected into the UPLC-MS/MS system for analysis.

[1] = plasma, arthritic model rats (complete Freund's adjuvant), oral APR extract 4.1 mL/kg, mean ± SD, n = 6
[2] = plasma, normal rats, oral APR extract 4.1 mL/kg, mean ± SD, n = 6
[3] = plasma, t 1/2, arthritic model rats (complete Freund's adjuvant), oral APR extract 4.1 mL/kg, mean ± SD, n = 6
[4] = plasma, t 1/2, normal rats, oral APR extract 4.1 mL/kg, mean ± SD, n = 6
[5] = in vivo, arthritic model rats (complete Freund's adjuvant), oral APR extract 4.1 mL/kg, plasma, mean ± SD, n = 6
[6] = in vivo, normal rats, oral APR extract 4.1 mL/kg, plasma, mean ± SD, n = 6
[7] = oral APR, concentration-time curve

SMILES | Cmax [1] | Cmax [2] | MRT last [1] | MRT last [2] | half-life [3] | half-life [4] | Tmax [1] | Tmax [2] | change of AUC0-t in model rats compared with normal rats (model vs normal rats, oral APR) | change of CL in model rats compared with normal rats (model vs normal rats, oral APR) | change of MRT in model rats compared with normal rats (model vs normal rats, oral APR) | change of Cmax in model rats compared with normal rats (model vs normal rats, oral APR) | other results
O=C(/C=C/c1ccc(O)c(O)c1)O[C@@H]1[C@H](O)C[C@@](O)(C(=O)O)C[C@H]1OC(=O)/C=C/c1ccc(O)c(O)c1 [3,4-diCQA, isochlorogenic acid B] | 79.7 ± 7.11 ng/mL | 85.7 ± 8.14 ng/mL | 19.8 ± 0.4 h | 21.2 ± 0.73 h | 5070 ± 1460 min | 3480 ± 718 min | 17.4 ± 6 min | 17.4 ± 6 min | decreased | – | – | – | –
CC(C)=CCOc1c2ccoc2cc2oc(=O)ccc12 [Isoimperatorin, isoimperatorin] | 232 ± 21 ng/mL | 224 ± 26.8 ng/mL | 15.7 ± 0.65 h | 15.1 ± 0.57 h | 1610 ± 328 min | 1610 ± 500 min | 34.8 ± 12 min | 34.8 ± 12 min | – | – | – | – | –
O=c1ccc2cc3ccoc3cc2o1 [Psoralen, psoralen] | 327 ± 42.5 ng/mL | 210 ± 27.6 ng/mL | 12.9 ± 0.22 h | 14.3 ± 0.31 h | 359 ± 26.4 min | 588 ± 197 min | 460 ± 48.6 min | 480 ± 75.6 min | – | decreased | shortened | – | –
O=C(/C=C/c1ccc(O)c(O)c1)O[C@H]1[C@H](O)C[C@](O)(C(=O)O)C[C@H]1O [Cryptochlorogenic acid, cryptochlorogenic acid] | 189 ± 8.7 ng/mL | 143 ± 4.63 ng/mL | 19.5 ± 0.55 h | 18.3 ± 0.46 h | 2900 ± 632 min | 2070 ± 1060 min | 27 ± 6 min | 25.2 ± 7.2 min | increased | – | longer | increased | change of t1/2 in model rats compared with normal rats (model vs normal rats, oral APR): longer
CC(C)(O)[C@@H]1Cc2c(ccc3ccc(=O)oc23)O1 [Columbianetin, columbianetin] | 2220 ± 168 ng/mL | 3120 ± 242 ng/mL | 12.1 ± 0.2 h | 13.3 ± 0.36 h | 364 ± 76.8 min | 362 ± 7.2 min | 540 ± 65.4 min | 580 ± 49.2 min | decreased | increased | shortened | decreased | change of AUC0-∞ in model rats compared with normal rats (model vs normal rats, oral APR): decreased
COc1c2occc2cc2ccc(=O)oc12 [Xanthotoxin, xanthotoxin] | – | – | – | – | – | – | – | – | – | – | – | – | Cmax [5]: 528 ± 35 ng/mL; Cmax [6]: 554 ± 76 ng/mL; MRT last [5]: 10.3 ± 0.51 h; MRT last [6]: 10.7 ± 0.53 h; half-life (in vivo, t 1/2, arthritic model rats (complete Freund's adjuvant), oral APR extract 4.1 mL/kg, plasma, mean ± SD, n = 6): 855 ± 226 min; half-life (in vivo, t 1/2, normal rats, oral APR extract 4.1 mL/kg, plasma, mean ± SD, n = 6): 727 ± 104 min; Tmax [5]: 200 ± 61.8 min; Tmax [6]: 260 ± 49.2 min
C/C=C(/C)C(=O)OC(C)(C)[C@@H]1Cc2c(ccc3ccc(=O)oc23)O1 [Columbianadin, columbianadin] | 1500 ± 48.2 ng/mL | 1680 ± 222 ng/mL | 11.5 ± 0.87 h | 12.3 ± 0.57 h | 991 ± 290 min | 986 ± 238 min | 13.8 ± 1.8 min | 13.8 ± 1.8 min | – | decreased | – | – | –
O=C(/C=C/c1ccc(O)c(O)c1)O[C@@H]1C[C@](O)(C(=O)O)C[C@@H](O)[C@H]1O [Chlorogenic acid, chlorogenic acid] | 2760 ± 264 ng/mL | – | 8.68 ± 0.52 h | 5.95 ± 0.28 h | 3120 ± 790 min | 1670 ± 891 min | 27 ± 6 min | 32.4 ± 21.6 min | increased | – | longer | increased | change of t1/2 in model rats compared with normal rats (model vs normal rats, oral APR): longer; C max (normal rats, oral APR extract 4.1 mL/kg, plasma, mean ± SD, n = 6): 1669.61 ± 25.80 ng/mL
O=C(C=Cc1ccc(O)c(O)c1)OC1CC(O)(C(=O)O)CC(O)C1O (stereo not drawn) [Neochlorogenic acid] | 531 ± 24.1 ng/mL | 420 ± 58.6 ng/mL | 15.6 ± 0.26 h | 15.6 ± 0.68 h | 1910 ± 610 min | 2400 ± 992 min | 13.8 ± 1.8 min | 12 ± 2.4 min | – | – | – | – | change in the pharmacokinetic parameters in normal and model rats (model vs normal rats, oral APR): no significant change
COc1c2ccoc2cc2oc(=O)ccc12 [Bergapten, bergapten] | 518 ± 42.9 ng/mL | 383 ± 95.8 ng/mL | 7.11 ± 0.09 h | 9.4 ± 0.34 h | 430 ± 24.6 min | 565 ± 127 min | 280 ± 61.8 min | 220 ± 49.2 min | – | decreased | shortened | – | time of first plasma peak after administration of APR [7]: 5 min; time of second plasma peak after administration of APR [7]: 4 h
COc1ccc2ccc(=O)oc2c1CC=C(C)C [Osthol, osthol] | 4560 ± 272 ng/mL | 3640 ± 286 ng/mL | 6.94 ± 0.42 h | 6.53 ± 0.29 h | 385 ± 41.4 min | 805 ± 30.6 min | 54.6 ± 12 min | 69.6 ± 24 min | – | decreased | – | – | –
O=C(C=Cc1ccc(O)c(O)c1)OC1CC(O)(C(=O)O)CC(OC(=O)C=Cc2ccc(O)c(O)c2)C1O (stereo not drawn) [3,5-diCQA, isochlorogenic acid A] | 405 ± 49.2 ng/mL | 293 ± 47.7 ng/mL | 18.8 ± 0.49 h | 21.1 ± 0.68 h | 3570 ± 1030 min | 2030 ± 858 min | 10.8 ± 1.8 min | 10.8 ± 1.8 min | decreased | – | – | increasing | change of AUC0-∞ in model rats compared with normal rats (model vs normal rats, oral APR): increasing; change of t1/2 in model rats compared with normal rats (model vs normal rats, oral APR): prolonging
